Assay results published in publication PMC7279487, “Dual Target Ligands with 4-tert-Butylphenoxy Scaffold as Histamine H3 Receptor Antagonists and Monoamine Oxidase B Inhibitors” (International Journal of Molecular Sciences, 2020).
pIC50, pKi: −log10 of the molar value.

Assays:
hH3R = settings: read-out: H3R Ki; cited from earlier work
AChE = tested on: AChE; set-up: method as in PMID 28861918; settings: cited from earlier work
BuChE = tested on: BuChE; set-up: method as in PMID 28861918; settings: cited from earlier work
[1] = toxicity in HEK-293 cells (EZ4U); type: cell-based, human; settings: human, HEK-293 cells; reference doxorubicin at 0.2 and 0.05 µM; 48 h incubation; read-out: HEK-293 cell viability
Protocol: The used reference cytostatic drug doxorubicin (DX) decreased cell viability <50% under the same conditions at very low concentrations of 0.2 and 0.05 µM. […] Oxidative damage was induced by very high toxic levels of hydrogen peroxide (H2O2; 300 µM), the popular cell model for PD research, in neuroblastoma SH-SY5Y cell line. […] Salsolinol (SAL) was used at a concentration of 50 µM as the reference compound with the proven neuroprotection activity.
The HEK-293 cells were seeded at a concentration of 1.5 × 10^4 cells/well in 200 μL culture medium and incubated for 24 h at 37 °C and 5% CO2. […] Then, 25 μL EZ4U labelling mixture (Biomedica, Vienna, Austria) was added and the cells were incubated for 2 h. The spectrophotometric absorbance of the samples was measured using a microplate reader (EnSpire, PerkinElmer, Waltham, MA, USA) at 492 nm. All measurements were performed in triplicate, and results are shown as mean ± SD.

Structure (SMILES)	pKi (hH3R)	pIC50 (AChE)	pIC50 (BuChE)	viability at 48 h [1] [%]
C#CCN(C)Cc1cc2cc(OCCCN3CCCCC3)ccc2n1C [Contilisant]	7.96	6.28	5.77	
COc1cccc2c1C(=O)c1c(O)c3c(c(O)c1C2=O)C[C@@](O)(C(=O)CO)C[C@@H]3O[C@H]1C[C@H](N)[C@H](O)[C@H](C)O1 [doxorubicin (DX), doxorubicin, reference compound]				< 50
